Tested on: Human Cav2.3 channel
Assay: Human Cav2.3 channel calcium-influx assay
Assay type: cell-based
Settings: Fluo8 fluorescence, HEK-293 T-Rex/Kir2.1/Cav2.3e cells, without pluronic acid
Experimental: HEK-293 T-Rex cells were transfected with pcDNA3.1-Kir2.1 to generate a stable cell line. After antibiotic selection, the obtained stable pools were analysed using FLIPR^TETRA (membrane potential assay), and a limiting dilution was performed and a HEK-293 T-Rex/Kir2.1 clone was selected. The clone was transfected with pcDNA3.1-Cav2.3e and pBud-Cav-β4-α2δ1 to generate a stable cell line where the Cav2.3e expression is inducible. After antibiotic selection, functional clone pool analysis and two successive limiting dilutions, the final clone underwent a qPCR analysis and a biophysical and pharmacological validation using patch-clamp.
A compound plate, containing 10 test compounds in eight-points dose response with n=4, was prepared. Test compounds dose response curves were prepared in automated fashion in 100% DMSO at CyBio Felix and starting from a stock solution in 100% DMSO; a defined volume was serially moved into destination wells pre-filled with the desired DMSO volume; stock solution concentration volumes were dependent on the final compounds concentrations to be tested and the final DMSO content used in the assay. For the assay test compounds dose response curves ranged from 30 μM and half log dilution with 0.3% final DMSO. In order to obtain the 8-points dose response curve all the concentrations were created by starting from a 10 mM DMSO stock solution and then moving 9.5 μL into a destination well pre-filled with 20.5 μL of 100% DMSO and repeating this step seven times. This initial step was done into 96 MTP plates, 10 compounds/plate. One 384 MTP was then reformatted to contain all the 10 compounds at 8 concentrations, quadruplicate data points. This so obtained 384 MTP compound plate served as source plate in a “mother to child” process with a CyBi®-Well dispenser in which 0.7 μL of compounds were moved into a destination plate pre-filled with 57.6 μL of Tyrode's buffer 0 mM K+, thus obtaining 4× concentrated compounds solution. In columns 1-2 and 23-24 the control wells were added. Both “source” compound plate and “destination” compound plate were barcoded and a relationship between the two plates was thus generated.
The day before the experiment, cells were detached by gentle wash with DPBS, followed by 5 min incubation at 37° C. with Trypsin solution. Detached cells were diluted with OptiMEM+Doxycycline at 0.2 μg/mL, counted and plated in Poly-D-Lysine coated black/clear bottom (15.000 c/well in 20 μl/well) by the use of a MATRIX WellMate dispenser. Plates were placed into a humidified incubator at 37° C. with 5% CO2 until the experimental day. 24 h after seeding 10 μL/well of 1.5× Fluo8 NW dye solution prepared in Tyrode's buffer 0 mM K* were added on top of the seeding medium. Cell plates were incubated for 40-60 min at RT in the dark. We then Injected off-line 10 μL/well of test compounds and controls 4× concentrated in Tyrode's Buffer 0 mM K+ with the CyBi®-Well instrument. Cell plates were incubated 3 minutes at RT. Finally, we injected 20 μL/well of 3× concentrated activator solution (K20-Na130-Ca2 buffer: 20 mM KCl, 130 mM NaCl, 2 mM CaCl2, 10 mM HEPES, 10 mM Glucose, final concentrations, prepared starting from “K0-Na150-Ca2” and “K150-Na0-Ca2” buffers) at FDSS7000EX instrument and read emitted fluorescence for 130 seconds.
Data analysis was performed with Genedata Screener® software and reported compounds activity as % effect in relation to the normalization standards. The Kinetic Response Value (KRV) is calculated as follows:
KRV=Maximal fluorescence recorded from second 5 to second 130 minus baseline fluorescence, computed as average from second 1 to second 2, of the kinetic trace. The KRV was normalized versus Neutral Controls and Inhibitor Controls in order to obtain the Activity[%] for each well. […] Therefore, the compound activity values were scaled (based on the two references) to a common range (two-point normalization). […]

Structure (SMILES) | Cav2.3 (pIC50)
CCN([C@@H](c1ccc(F)c(OC)c1)C(F)(F)F)S(=O)(=O)c1cncc(C#N)c1 [Example 258, (S)-5-cyano-N-ethyl-N-(2,2,2-trifluoro-1-(4-fluoro-3-methoxyphenyl)ethyl)pyridine-3-sulfonamide] | 5.87
CN([C@H](c1ccc(Cl)cc1)C(F)(F)F)S(=O)(=O)c1cnc2cccnn12 [Example 210, (R)—N-(1-(4-chlorophenyl)-2,2,2-trifluoroethyl)-N-methylimidazo[1,2-b]pyridazine-3-sulfonamide] | 6.85
CCN(C(c1ccc(F)cc1)C(F)(F)F)S(=O)(=O)c1cncc(N2CCOCC2)c1 (stereo not drawn) [Example 93, N-ethyl-5-morpholino-N-(2,2,2-trifluoro-1-(4-fluorophenyl)ethyl)pyridine-3-sulfonamide] | 6.53
CN(C)C(=O)c1ccc(S(=O)(=O)NC(c2ccc(F)cc2)C(F)(F)F)s1 (stereo not drawn) [Example 24, N,N-dimethyl-5-(N-(2,2,2-trifluoro-1-(4-fluorophenyl)ethyl)sulfamoyl)thiophene-2-carboxamide] | 4.89
CCN(C(c1ncc(C)s1)C(F)(F)F)S(=O)(=O)c1cncc(C#N)c1 (stereo not drawn) [Example 264, 5-Cyano-N-ethyl-N-(2,2,2-trifluoro-1-(5-methylthiazol-2-yl)ethyl)pyridine-3-sulfonamide] | 4.96
CCN(C(c1ccc(F)cc1)C(F)(F)F)S(=O)(=O)c1ccc2c(c1)COCC2 (stereo not drawn) [Example 29, N-ethyl-N-(2,2,2-trifluoro-1-(4-fluorophenyl)ethyl)isochromane-7-sulfonamide] | 6.18
CCN([C@H](c1ccc(F)cc1)C(F)(F)F)S(=O)(=O)c1ccc2c(c1)OCC2 [Example 40, (R)—N-ethyl-N-(2,2,2-trifluoro-1-(4-fluorophenyl)ethyl)-2,3-dihydrobenzofuran-6-sulfonamide] | 5.62
CCN([C@H](c1ccc(F)cc1)C(F)(F)F)S(=O)(=O)c1ccc(N2CCOCC2)s1 [Example 90, (R)—N-ethyl-5-morpholino-N-(2,2,2-trifluoro-1-(4-fluorophenyl)ethyl)thiophene-2-sulfonamide] | 6.20
CN([C@H](c1ccc(C(F)(F)F)cc1)C(F)(F)F)S(=O)(=O)c1cccnc1 [Example 267, (R)—N-methyl-N-(2,2,2-trifluoro-1-(4-(trifluoromethyl)phenyl)ethyl)pyridine-3-sulfonamide] | 7.09
CCN(C(c1ccc(C)cc1)C(F)(F)F)S(=O)(=O)c1cncc(C#N)c1 (stereo not drawn) [Example 104, 5-Cyano-N-ethyl-N-(2,2,2-trifluoro-1-(p-tolyl)ethyl)pyridine-3-sulfonamide] | 7.24
CCN([C@H](c1ccccc1C(F)(F)F)C(F)(F)F)S(=O)(=O)c1cncc(C#N)c1 [Example 248, (R)-5-cyano-N-ethyl-N-(2,2,2-trifluoro-1-(2-(trifluoromethyl)phenyl)ethyl)pyridine-3-sulfonamide] | 5.14
CN([C@H](c1ccc(Cl)cc1)C(F)(F)F)S(=O)(=O)c1cnc2[nH]cnc2c1 [Example 193, (R)—N-(1-(4-chlorophenyl)-2,2,2-trifluoroethyl)-N-methyl-3H-imidazo[4,5-b]pyridine-6-sulfonamide] | 6.65
CCN(C(c1ccc(F)cc1)C(F)(F)F)S(=O)(=O)c1csc(C#N)c1 (stereo not drawn) [Example 42, 5-Cyano-N-ethyl-N-(2,2,2-trifluoro-1-(4-fluorophenyl)ethyl)thiophene-3-sulfonamide] | 6.90
CCN(C(c1ccc(F)cc1)C(F)(F)F)S(=O)(=O)c1cnc(C)nc1 (stereo not drawn) [Example 75, N-ethyl-2-methyl-N-(2,2,2-trifluoro-1-(4-fluorophenyl)ethyl)pyrimidine-5-sulfonamide] | 5.94
CCN(C(c1ccccc1C)C(F)(F)F)S(=O)(=O)c1cncc(C#N)c1 (stereo not drawn) [Example 86, 5-cyano-N-ethyl-N-(2,2,2-trifluoro-1-(o-tolyl)ethyl)pyridine-3-sulfonamide] | 5.95
CCN([C@@H](c1ccc(F)cc1)C(F)(F)F)S(=O)(=O)c1cncc(N2CCOCC2)c1 [Example 95, (S)—N-ethyl-5-morpholino-N-(2,2,2-trifluoro-1-(4-fluorophenyl)ethyl)pyridine-3-sulfonamide] | 5.62
CCN([C@H](c1ccc(F)cc1)C(F)(F)F)S(=O)(=O)c1cncc(N2CCCC2)c1 [Example 98, (R)—N-ethyl-5-(pyrrolidin-1-yl)-N-(2,2,2-trifluoro-1-(4-fluorophenyl)ethyl)pyridine-3-sulfonamide] | 5.80
CCN([C@H](c1ccc(F)cc1)C(F)(F)F)S(=O)(=O)c1ccc2c(c1)OC(F)(F)O2 [Example 162, (R)—N-ethyl-2,2-difluoro-N-(2,2,2-trifluoro-1-(4-fluorophenyl)ethyl)benzo[d][1,3]dioxole-5-sulfonamide] | 6.01
CN([C@H](c1ccc(F)cc1)C(F)(F)F)S(=O)(=O)c1ccc2cnn(C)c2c1 [Example 161, (R)—N,1-dimethyl-N-(2,2,2-trifluoro-1-(4-fluorophenyl)ethyl)-1H-indazole-6-sulfonamide] | 6.22
CCN([C@H](c1ccccc1OC)C(F)(F)F)S(=O)(=O)c1cncc(C#N)c1 [Example 109, (R)-5-cyano-N-ethyl-N-(2,2,2-trifluoro-1-(2-methoxyphenyl)ethyl)pyridine-3-sulfonamide] | 4.59
CCN([C@@H](c1ccc(F)cc1)C(F)(F)F)S(=O)(=O)c1ccc2c(c1)OCC2 [Example 41, (S)—N-ethyl-N-(2,2,2-trifluoro-1-(4-fluorophenyl)ethyl)-2,3-dihydrobenzofuran-6-sulfonamide] | 4.72
COc1ccc(C(N(C)S(=O)(=O)C2CCOCC2)C(F)(F)F)cc1 (stereo not drawn) [Example 125, N-methyl-N-(2,2,2-trifluoro-1-(4-methoxyphenyl)ethyl)tetrahydro-2H-pyran-4-sulfonamide] | 5.37
CCN([C@H](c1cccc(Cl)c1)C(F)(F)F)S(=O)(=O)c1cncc(C#N)c1 [Example 251, (R)—N-(1-(3-chlorophenyl)-2,2,2-trifluoroethyl)-5-cyano-N-ethylpyridine-3-sulfonamide] | 7.18
CCN([C@H](c1ccc(F)cc1)C(F)(F)F)S(=O)(=O)c1ccc2nc(N)sc2c1 [Example 154, (R)-2-amino-N-ethyl-N-(2,2,2-trifluoro-1-(4-fluorophenyl)ethyl)benzo[d]thiazole-6-sulfonamide] | 6.70
CCN([C@H](c1ccc(C(F)(F)F)cc1)C(F)(F)F)S(=O)(=O)c1ccn2ncnc2c1 [Example 216, (R)—N-ethyl-N-(2,2,2-trifluoro-1-(4-(trifluoromethyl)phenyl)ethyl)-[1,2,4]triazolo[1,5-a]pyridine-7-sulfonamide] | 7.29
CCNc1nc2ccc(S(=O)(=O)N(CC)[C@H](c3ccc(F)cc3)C(F)(F)F)cc2s1 [Example 139, (R)—N-ethyl-2-(ethylamino)-N-(2,2,2-trifluoro-1-(4-fluorophenyl)ethyl)benzo[d]thiazole-6-sulfonamide] | 6.31
CCN([C@H](c1ccc(F)cc1)C(F)(F)F)S(=O)(=O)c1ccc2nncn2n1 [Example 192, (R)—N-ethyl-N-(2,2,2-trifluoro-1-(4-fluorophenyl)ethyl)-[1,2,4]triazolo[4,3-b]pyridazine-6-sulfonamide] | 6.18
